One compound from patent US20110105517A1, “THERAPEUTIC AGENT FOR AMYOTROPHIC LATERAL SCLEROSIS” (priority 2008, published 2011) can be followed below.

The test system of one assay is HeLa cells. Briefly: Cell viability assay 1: oxidative stress (menadione)-induced cell death in non-neuronal cells. The class given is cell-based. The following applies: pre-treatment 2.5, 5, 10 μM for 24 h; menadione 20-80 μM for 4 h; AlamarBlue; versus DMSO alone; FIG. 1. How it is done:
HeLa cells (1.0×10^6) were plated in 75 cm^2 flask and were cultured in the presence of 5% CO2 at 37° C. for 16 hours. Bromocriptine mesylate in DMSO was then added to the medium at the final concentrations of 2.5, 5 and 10 μM. The amount of DMSO used in each samples were adjusted to that used in the 10 μM sample. Cells were cultured for additional 24 hours (bromocriptine mesylate treatment). As a negative control, DMSO without bromocriptine mesylate was added. Menadione was then added to the HeLa cells treated with bromocriptine mesylate at the final concentrations of 0, 20, 40, 60 and 80 μM and the cells were further incubated in 5% CO2, at 37° C. (oxidative stress treatment). As a negative control, 0.1% Triton X-100/DMEM/10% FBS was added in place of menadione. After 4 hours of oxidative stress treatment, the medium was replaced with that containing AlamarBlue, and the cell culture was resumed in 5% CO2, at 37° C. After 16 hours of incubation, the number of viable cells was counted by measuring the fluorescence at excitation wave length 530 nm/emission wave length 580 nm, using the fluorescence plate reader.
The X-axis of the graph represents menadione concentration (μM), while the Y-axis of the graph represents cell viability (%). The Y-axis values under each condition are shown as viability relative to the no menadione treatment (0 μM) control which is set at 100%.

Assay [1] has as its system differentiated SH-SY5Y cells. As to the kind of experiment: Cell viability assay 2: oxidative stress (menadione)-induced cell death in differentiated neuronal cells. To be noted: retinoic acid-differentiated cells; pre-treatment 5, 10, 20, 40 μM for 24 h; menadione 20-50 μM for 4 h; AlamarBlue; versus DMSO alone; FIG. 2. It counts as cell-based, human. How it is done: SH-SY5Y cells were suspended in DMEM supplemented with 10% FBS, were plated at 1.0×10^4 cells/well in 96 well microtiter plate, and were incubated in 5% CO2 at 37° C. for 24 hours. The medium was then replaced with DMEM supplemented with 10% FBS and 10 μM all-trans retinoic acid (RA) (DMEM/FBS/RA), and after 5 days, bromocriptine mesylate in DMSO was added to the medium at the final concentrations of 5, 10, 20 and 40 μM. The amount of DMSO used in each samples were adjusted to that used in the 40 μM sample. The cells were cultured for additional 24 hours (bromocriptine mesylate treatment). As a negative control, DMSO without bromocriptine mesylate was added. Menadione was then added to the SH-SY5Y cells treated either with DMSO alone or bromocriptine mesylate at the final concentrations of 0, 20, 30, 40, and 50 μM, and cultured in 5% CO2 at 37° C. (oxidative stress treatment). As a negative control, 0.1% Triton X-100/DMEM/10% FBS was added. After 4 hours of oxidative stress treatment, the medium was replaced with that containing AlamarBlue, and the cell culture was resumed in 5% CO2, at 37° C. After 16 hours of incubation, the number of viable cells was counted by measuring the fluorescence at excitation wave length 530 nm/emission wave length 580 nm, using the fluorescence plate reader. […]

The subject of assay [2] is ALS-SOD1^H46R mouse. As to the kind of experiment: Efficacy test in vivo: motor function in vertical climb test. The following applies: 10 mg/kg i.p. once a day from onset of symptoms; n=5; non-administered group deteriorated significantly; FIG. 3. How it is done: (§1) In this test, ALS-SOD1^H46R mouse carrying the mutation in the SOD1 gene (SOD1^H46R) (ALS1) was used. The mice were housed at 23° C. with a 12 hr light/dark cycle. Bromocriptine mesylate was suspended in 0.5% carboxymethylcellulose sodium (CMC-Na). The administration of bromocriptine mesylate was initiated when the neurological symptoms was first observed (first manifestation of the illness) in the ALS-SOD1^H46R mouse in the balance beam test. The dosage of bromocriptine mesylate was 10 mg or 1 mg per 1 kg of body weight in each of the animals, and administered by intraperitoneal injection once a day until the animals died (group treated with bromocriptine mesylate). As the negative control, the mice were administered with 0.5% CMC-Na (5 ml/kg) (group not treated with bromocriptine mesylate). Balance beam test (stainless beam: 50 cm long, 0.9 cm wide) was employed to evaluate the appearance of neurological symptoms. The evaluation of symptoms was carried out in 5 grades. Grade 3 was considered to be the first manifestation of the symptoms. The evaluation criteria used are shown below.
The motor functions of mice in bromocriptine mesylate administered group and non-administered group were evaluated by vertical climb test (stainless bar: 50 cm long, 0.9 cm wide). […] The best score among the 5 test results was recorded as the motor function value. […]

The test system of assay [3] is ALS-SOD1^H46R mouse. Briefly: Efficacy test in vivo: survival after the onset of the disease. The following applies: i.p. once a day from onset, non-administered group 27.8±2.1 day, FIG. 4. How it is done: as §1

Structures can show the parent of a compound that is named as a salt.

On to `CC(C)C[C@H]1C(=O)N2CCC[C@H]2[C@]2(O)O[C@](NC(=O)[C@@H]3C=C4c5cccc6[nH]c(Br)c(c56)C[C@H]4N(C)C3)(C(C)C)C(=O)N12` [bromocriptine mesylate], for which the “viabilities of HeLa cells exposed to oxidative stress by menadione” value with HeLa cells is on record as “increased depending on the concentration of bromocriptine mesylate”. Also, in assay [1], the “viabilities of SH-SY5Y cells exposed to oxidative stress by menadione” value is “increased depending on the concentration of bromocriptine mesylate”. Further, in the assay on ALS-SOD1^H46R mouse [2], the “motor function (vertical climb test) at 21 weeks of age” value was “largely unchanged”. In addition, the “overall survival after the onset of the disease” value was found to be 35.3 ± 6.0 days with ALS-SOD1^H46R mouse [3] (1 mg/kg, n=4) and 38.0 ± 2.9 days in the assay on ALS-SOD1^H46R mouse [3] (10 mg/kg, n=5).
